From the supplement of paper PMC10307832

Assays:
Assay in all cases: relative viability (nuclei count vs DMSO), 5 days (fraction); higher = more cells survive
Carfilzomib = compound: CC(C)C[C@H](NC(=O)[C@H](CCc1ccccc1)NC(=O)CN1CCOCC1)C(=O)N[C@@H](Cc1ccccc1)C(=O)N[C@@H](CC(C)C)C(=O)[C@@]1(C)CO1 [Carfilzomib]
In short: (§1)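 Lung cancer cell lines were seeded into 1536-well plates, kept overnight at 37 °C and pinned with five library-drug doses (not always all listed) spaced by √10. After 5 days, nuclei were Hoechst-stained, imaged at 4× and counted with MetaXpress. Viability is treated-well nuclei over vehicle-well nuclei, taken as a median across plates. Plates needed control CV below 25% and at least one doubling.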

Olaparib = compound: O=C(c1cc(Cc2n[nH]c(=O)c3ccccc23)ccc1F)N1CCN(C(=O)C2CC2)CC1 [Olaparib]
In short: as §1

Crizotinib = compound: C[C@@H](Oc1cc(-c2cnn(C3CCNCC3)c2)cnc1N)c1c(Cl)ccc(F)c1Cl [Crizotinib]
In short: as §1

Cell Line | relative viability (Carfilzomib; 0.001 µM) | relative viability (Carfilzomib; 0.003162 µM) | relative viability (Carfilzomib; 0.01 µM) | relative viability (Carfilzomib; 0.03162 µM) | relative viability (Carfilzomib; 0.1 µM) | relative viability (Olaparib; 0.08 µM) | relative viability (Olaparib; 0.253 µM) | relative viability (Olaparib; 2.53 µM) | relative viability (Olaparib; 8 µM) | relative viability (Olaparib; 8 µM, anchor plate) | relative viability (Crizotinib; 0.01 µM) | relative viability (Crizotinib; 0.03162 µM) | relative viability (Crizotinib; 0.1 µM) | relative viability (Crizotinib; 0.3162 µM) | relative viability (Crizotinib; 1 µM) | relative viability (Crizotinib; 1 µM, anchor plate)
NCI-H2023 | 1.01 | 0.965 | 0.944 | 0.436 | 0.0808 | 0.98 | 0.944 | 0.901 | 0.685 | 0.478 | 0.85 | 0.982 | 0.974 | 0.761 | 0.734 | 0.676
NCI-H2085 | 1.02 | 1.03 | 0.962 | 0.547 | 0.323 | 1.16 | 0.912 | 0.983 | 0.959 | 0.769 | 0.936 | 1.03 | 0.977 | 1 | 0.975 | 0.882
NCI-H2087 | 0.989 | 1.06 | 0.586 | 0.0747 | 0.0676 | 1.31 | 0.929 | 0.944 | 0.662 | 0.601 | 0.871 | 0.982 | 1.22 | 0.788 | 1.03 | 0.811
NCI-H2126 | 0.994 | 1.07 | 1.03 | 0.93 | 0.568 | 1.07 | 0.984 | 0.982 | 1.01 | 0.907 | 0.934 | 1.02 | 0.959 | 0.914 | 0.993 | 
NCI-H2170 | 0.931 | 0.99 | 1.07 | 0.969 | 0.443 | 0.973 | 0.875 | 0.971 | 0.915 | 0.599 |  | 0.985 | 0.977 | 0.928 | 1.01 | 1.2
NCI-H2228 | 0.975 | 1.15 | 0.905 | 0.157 | 0.101 | 1.12 | 0.845 | 0.777 | 0.609 | 0.719 | 1.16 | 1.04 | 1 | 0.679 | 0.585 | 0.482
NCI-H2342 | 0.975 | 0.957 | 1.06 | 0.968 | 0.825 | 0.974 | 0.951 | 0.936 | 0.941 | 0.452 | 0.891 | 0.999 |  | 0.867 | 0.882 | 
NCI-H2347 | 0.971 | 1.08 | 1.03 | 0.511 | 0.393 | 1.09 | 0.877 | 0.877 | 0.765 | 0.583 | 0.965 | 0.974 | 1.07 | 0.973 | 1.06 | 0.73
NCI-H2405 | 0.704 | 1.15 | 1.1 | 0.8 | 0.277 | 1.09 | 0.884 | 0.945 | 1.02 | 0.853 | 1.01 | 0.977 | 0.909 | 0.949 | 0.973 | 0.789
NCI-H3122 | 1.03 | 1.05 | 1.03 | 0.978 | 0.455 | 1 | 0.966 | 0.946 | 0.865 | 0.607 | 0.944 | 0.988 | 1.02 | 0.864 | 0.798 | 0.275
PC-3 [JPC-3] | 1 | 1.07 | 1.09 | 0.896 | 0.39 | 1.06 | 0.907 | 1.12 | 0.989 | 1.1 | 0.978 | 1.04 | 1.15 | 0.992 | 0.961 | 0.97
PC-14 | 1.03 | 1.13 | 1.06 | 0.29 | 0.0816 | 1.14 | 0.849 | 0.954 | 0.682 | 0.285 | 0.92 | 1.01 | 1.02 | 0.963 | 0.986 | 
RERF-LC-KJ | 0.923 | 1.03 | 1.05 | 0.683 | 0.259 | 1.06 | 0.943 | 0.947 | 0.971 | 0.89 | 0.944 | 1.06 | 1.02 | 0.927 | 1.05 | 0.819
SK-LU-1 | 0.968 | 1.22 | 1 | 0.249 | 0.187 | 1.13 | 0.906 | 0.926 | 0.735 | 0.44 | 1.06 | 1.07 | 1.02 | 1.05 | 1.08 | 0.852
SK-MES-1 | 0.987 | 1.05 | 1.06 | 0.782 | 0.186 | 1.09 | 0.892 | 0.96 | 0.776 | 0.731 | 0.951 | 0.999 | 1.02 | 0.97 | 0.967 | 0.991
SW 900 | 0.747 | 0.883 | 0.288 | 0.161 | 0.192 | 0.879 | 0.855 | 0.715 | 0.716 | 0.905 | 0.811 | 0.97 | 0.93 | 0.787 | 0.952 | 
SW 1573 | 0.957 | 1.18 | 0.77 | 0.173 | 0.0655 | 1.1 | 0.896 | 0.825 | 0.633 | 0.512 | 0.941 | 0.999 | 0.917 | 0.885 | 0.974 | 0.793
UMC-11 | 0.947 | 1.03 | 0.987 | 0.854 | 0.578 | 1.03 | 0.894 | 0.758 | 0.492 | 0.373 | 0.898 | 0.972 | 0.91 | 0.636 | 1.01 | 0.606
